Values of other authors, collected in US8349982B2, “Macromonomers and hydrogels” (William Marsh Rice University, priority 2006, dated 2013).

Conditions: stated as typical

- Solubility in water (in words): insoluble in water
Structure (SMILES): C=CC(=O)OCC(CO)(COC(=O)C=C)COC(=O)CCCCCCCCCCCCCCCCC [PEDAS, Pentaerythritol diacrylate monostearate]
